Like-named read-outs stand apart in the source and are kept apart here.
How the values were obtained:
B10R111 mice = assay: Mouse CIA model; format: in vivo; details: oral gavage at 30 mg/kg (BID)
Procedure: Mouse CIA model was performed using the methods described by Trentham D E, Townes A S, Kang A H. Autoimmunity to Type II Collagen: An Experimental Model of Arthritis. J Exp Med 1977; 857-868, and Bendele A M. Animal Models of Rheumatoid Arthritis. J Musculoskel Interact 2001; 377-385.
In summary, male B10R111 mice (7-9 wks on arrival) were habituated to the animal facility for at least 4 days. On experimental day 0 mice were anaesthetized with isoflurane and the dorsal surface was shaved. Collagen, emulsified in Freund's complete adjuvant (CFA) supplemented with additional mycobacterium tuberculosis (TB) H37Ra, was injected intradermally at the base of the tail (0.15 mL/animal; 2 mg/mL collagen and 2.5 mg/mL TB in CFA). This CFA treatment was repeated on day 15.
From day 15 to the end of the study animals were scored daily for signs of arthritis. On the first day of disease (RA Day 1) animals were recruited to the study and grouped using a balanced design based on arthritis score. Once recruited, animals were weighed and dosed twice daily by gavage (PO, BID). Recruited animals were then scored twice a week on RA days 1, 5, 8 and 12. At the end of the study (RA day 12) animals were weighed and scored.

[1] = biological target: recombinant human full-length Bruton Agammaglobulinemia Tyrosine Kinase (Btk) (Homo sapiens (Human), UniProt Q06187); assay: Btk Kinase Inhibition Assay (fluorescence polarization); format: biochemical; details: 10 μM ATP, 250 μM substrate, 60 minutes; Ki calculated from IC50 using the Cheng-Prusoff equation
Sequence of recombinant human full-length Bruton Agammaglobulinemia Tyrosine Kinase (Btk) (Q06187 whole entry): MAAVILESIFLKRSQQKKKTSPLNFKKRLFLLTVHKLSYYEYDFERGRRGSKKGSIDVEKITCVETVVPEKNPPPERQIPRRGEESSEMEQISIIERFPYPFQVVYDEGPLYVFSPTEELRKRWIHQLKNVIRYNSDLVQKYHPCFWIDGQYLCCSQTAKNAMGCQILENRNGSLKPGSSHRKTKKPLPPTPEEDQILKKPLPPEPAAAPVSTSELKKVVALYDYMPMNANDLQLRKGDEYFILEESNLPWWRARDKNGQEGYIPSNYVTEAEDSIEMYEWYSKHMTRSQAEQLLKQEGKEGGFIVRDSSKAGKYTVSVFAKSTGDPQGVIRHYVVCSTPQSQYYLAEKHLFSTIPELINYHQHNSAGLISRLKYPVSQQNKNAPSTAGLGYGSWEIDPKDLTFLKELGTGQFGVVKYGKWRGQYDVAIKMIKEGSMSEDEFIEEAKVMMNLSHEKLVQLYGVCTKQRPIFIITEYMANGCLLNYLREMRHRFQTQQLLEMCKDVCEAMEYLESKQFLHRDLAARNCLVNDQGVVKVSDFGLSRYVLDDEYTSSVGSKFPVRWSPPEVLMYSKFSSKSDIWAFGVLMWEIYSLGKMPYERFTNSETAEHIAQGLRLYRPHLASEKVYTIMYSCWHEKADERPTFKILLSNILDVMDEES
Procedure: Kinase Binding Btk Kinase Inhibition Assay
Fluorescence polarization-based kinase assays were performed in 384 well-plate format using histidine tagged recombinant human full-length Bruton Agammaglobulinemia Tyrosine Kinase (Btk) and a modified protocol of the KinEASE™ FP Fluorescein Green Assay supplied from Millipore. Kinase reaction were performed at room temperature for 60 minutes in presence of 250 μM substrate, 10 μM ATP and variable test article concentrations. The reaction was stopped with EDTA/kinase detection reagents and the polarization measured on a Tecan 500 instrument. From the dose-response curve obtained, the IC50 was calculated using Graph Pad Prisms® using a non linear fit curve. The Km for ATP on each enzyme was experimentally determined and the Ki values calculated using the Cheng-Prusoff equation (see: Cheng Y, Prusoff W H. (1973) Relationship between the inhibition constant (K1) and the concentration of inhibitor which causes 50 percent inhibition (I50) of an enzymatic reaction”. Biochem Pharmacol 22 (23): 3099-108).

[2] = tested on: Splenocytes (B cell proliferation stimulated with anti-IgM F(ab′)2); assay: Splenic Cell Proliferation Assay; format: cell-based; details: CD1 mouse splenocytes, 2.5 ug/ml anti-IgM F(ab′)2 for 72 h, Cell Titer-Glo, read-out: EC50 (nM), Inhibition of splenic cell proliferation
Procedure: Splenic Cell Proliferation Assay
Splenocytes were obtained from 6 week old male CD1 mice (Charles River Laboratories Inc.). Mouse spleens were manually disrupted in PBS and filtered using a 70 um cell strainer followed by ammonium chloride red blood cell lysis. Cells were washed, resuspended in Splenocyte Medium (HyClone RPMI supplemented with 10% heat-inactivated FBS, 0.5× non-essential amino acids, 10 mM HEPES, 50 uM beta mercaptoethanol) and incubated at 37° C., 5% CO2 for 2 h to remove adherent cells. Suspension cells were seeded in 96 well plates at 50,000 cells per well and incubated at 37° C., 5% CO2 for 1 h. Splenocytes were pre-treated in triplicate with 10,000 nM curves of Formula 1 compounds for 1 h, followed by stimulation of B cell proliferation with 2.5 ug/ml anti-IgM F(ab′)2 (Jackson ImmunoResearch) for 72 h. Cell proliferation was measured by Cell Titer-Glo Luminescent Assay (Promega). EC50 values (50% proliferation in the presence of compound as compared to vehicle treated controls) were calculated from dose response compound curves using GraphPad Prism Software.

Balb/c mice = assay: Mouse Arthus; format: in vivo; details: oral gavage at 30 mg/kg, 1 h pre-treatment
Procedure: Mouse Arthus studies were conducted as reported in Braselmann S, Taylor V, Zhao H, Wang S, Sylvain C, Baluom M, Qu K, Herlaar E, Lau A, Young C, Wong B R, Lovell S, Sun T, Park G, Argade A, Jurcevic S, Pine P, Singh R, Grossbard E B, Payan D G, Masuda E S: R406 an orally available spleen tyrosine kinase inhibitor blocks fc receptor signaling and reduces immune-complex mediated inflammation. J Pharmacol Exp Ther, 2006, 319:998-1008.
In summary, female Balb/c mice (6-7 weeks on arrival) were habituated to the animal facility for at least 4 days. On the day of the experiment, animals were pre-treated (t=minus 1 h) with compound or vehicle alone by gavage (PO). At t=0, animals were injected intravenously (IV; 0.1 mL/mouse) with saline containing chicken ovalbumin and Evan's blue (10 mg/mL of each). Ten minutes later (t=10 min), animals were anesthesized with isoflurane, the dorsal surface was shaved and rabbit anti-chicken ovalbumin antibody was then injected intradermally at one site on the right side of the animal (25 μg in 30 μL). The same amount of isotype control antibody was then injected on the left side.
The animals were then returned to their home cage and skin punches (8 mm) were collected from each injection site four hours later. The samples were placed in 1 mL formamide overnight at 80 degrees C. (1 skin biopsy per 1 mL formamide in a glass tube). The amount of Evan's blue in the formamide solution was then assessed by spectrophotometry (630 nm) as a measure of serum extravasation into the dermis.

Ki [1] [nM] | Compound | efficacy in mouse CIA model (arthritis score) (B10R111 mice) | EC50 ([2]; Mus musculus, Splenocyte, 72 h) [nM] | efficacy in mouse Arthus (Evan's blue extravasation) (Balb/c mice) | EC50 [2] [nM]
< 100 | Nc1ncnc2c1c(-c1ccc(Oc3cccc(OCc4cncs4)c3)cc1)nn2C1CCCC1 [Compound 14] | demonstrated efficacy | < 100 | demonstrated efficacy | 
< 100 | N#Cc1ccccc1COc1cccc(Oc2ccc(-c3nn(C4CCCC4)c4ncnc(N)c34)cc2)c1 [Compound 15] |  |  | demonstrated efficacy | < 100
< 100 | Nc1ncnc2c1c(-c1ccc(Oc3cccc(OCc4cncs4)c3)cc1)nn2C1CCOCC1 [Compound 24] |  | < 100 | demonstrated efficacy | 
< 100 | Nc1ncnc2c1c(-c1ccc(Oc3cc(F)cc(OCc4cncs4)c3)cc1)nn2C1CCOCC1 [Compound 46] |  | < 100 | demonstrated efficacy | 
< 100 | Nc1ncnc2c1c(-c1ccc(Oc3cc(F)cc(OCc4cncs4)c3)cc1)nn2C1CCCC1 [Compound 50] |  | < 100 | demonstrated efficacy | 
< 100 | Cc1ncc(COc2cc(F)cc(Oc3ccc(-c4nn(C5CCOCC5)c5ncnc(N)c45)cc3)c2)s1 [Compound 54] |  | < 100 | demonstrated efficacy | 
< 100 | Cc1ncc(COc2cc(F)cc(Oc3ccc(-c4nn(C5CCCC5)c5ncnc(N)c45)cc3)c2)s1 [Compound 58] | demonstrated efficacy | < 100 | demonstrated efficacy | 
< 100 | Cc1ncc(COc2cc(F)cc(Oc3ccc(-c4nn(C5CCOCC5)c5ncnc(N)c45)cc3F)c2)s1 [Compound 59] |  | < 100 | demonstrated efficacy | 
< 100 | Cc1ncc(COc2cccc(Oc3ccc(-c4nn(C5CCOCC5)c5ncnc(N)c45)cc3F)c2)s1 [Compound 62] |  | < 100 | demonstrated efficacy | 
< 100 | Cn1cncc1COc1cc(F)cc(Oc2ccc(-c3nn(C4CCOCC4)c4ncnc(N)c34)cc2)c1 [Compound 71] |  | < 100 | demonstrated efficacy | 
< 100 | Cc1ncc(COc2cc(F)cc(Oc3ccc(-c4nn(C(C)C)c5ncnc(N)c45)cc3)c2)s1 [Compound 78] | demonstrated efficacy | < 100 | demonstrated efficacy | 
< 100 | CC(C)n1nc(-c2ccc(Oc3cc(F)cc(OCc4cncn4C)c3)cc2)c2c(N)ncnc21 [Compound 79] |  | < 100 | demonstrated efficacy | 
< 100 | Cn1cncc1COc1cc(F)cc(Oc2ccc(-c3nn(C4CCCC4)c4ncnc(N)c34)cc2)c1 [Compound 82] |  | < 100 | demonstrated efficacy | 
< 100 | Cn1cncc1COc1cc(F)cc(Oc2ccc(-c3nn(CCO)c4ncnc(N)c34)cc2)c1 [Compound 90] |  | 100 to 1000 | demonstrated efficacy | 
< 100 | Cc1ncc(COc2cc(F)cc(Oc3ccc(-c4nn(C(CO)CO)c5ncnc(N)c45)cc3)c2)s1 [Compound 100] |  | < 100 | demonstrated efficacy | 
< 100 | Cn1cncc1COc1cc(F)cc(Oc2ccc(-c3nn(C4CCCCC4)c4ncnc(N)c34)cc2)c1 [Compound 103] |  | < 100 | demonstrated efficacy | 
< 100 | Cc1ncc(COc2cc(F)cc(Oc3ccc(-c4nn(C5CCOCC5)c5ncnc(N)c45)cc3)c2)cn1 [Compound 106] |  | < 100 | demonstrated efficacy | 
< 100 | Cc1ncc(COc2cc(F)cc(Oc3ccc(-c4nn(C5CCCC5)c5ncnc(N)c45)cc3)c2)cn1 [Compound 107] |  | < 100 | demonstrated efficacy | 
< 100 | Cc1ncc(COc2cc(F)cc(Oc3ccc(-c4nn(C5CCOCC5)c5ncnc(N)c45)cc3)c2)n1C [Compound 108] |  | < 100 | demonstrated efficacy | 
< 100 | Cc1ncc(COc2cc(F)cc(Oc3ccc(-c4nn(CC(C)(C)O)c5ncnc(N)c45)cc3)c2)s1 [Compound 117] |  | < 100 | demonstrated efficacy | 
< 100 | Cc1ncc(COc2cc(F)cc(Oc3ccc(-c4nn(CC(C)(C)O)c5ncnc(N)c45)cc3)c2)n1C [Compound 121] |  | 100 to 1000 |  | 
< 100 | Cc1ncc(COc2cc(F)cc(Oc3ccc(-c4nn(CC(C)(C)O)c5ncnc(N)c45)cc3)c2)cn1 [Compound 122] |  | 100 to 1000 |  | 
< 100 | Cc1ncc(COc2cc(F)cc(Oc3ccc(-c4nn(C(C)C)c5ncnc(N)c45)cc3)c2)n1C [Compound 123] |  | < 100 |  | 
< 100 | Cc1ncc(COc2cc(F)cc(Oc3ccc(-c4nn(CC5(C)COC5)c5ncnc(N)c45)cc3)c2)n1C [Compound 124] |  | 100 to 1000 |  | 
< 100 | Cc1ncc(COc2cc(F)cc(Oc3ccc(-c4nn(CC5(C)COC5)c5ncnc(N)c45)cc3)c2)s1 [Compound 125] |  | < 100 | demonstrated efficacy | 
< 100 | Cc1ccc(COc2cc(F)cc(Oc3ccc(-c4nn(CC5(C)COC5)c5ncnc(N)c45)cc3)c2)cn1 [Compound 126] |  | 100 to 1000 |  | 
< 100 | Cc1ncc(COc2cc(F)cc(Oc3ccc(-c4nn(C(C)(C)C)c5ncnc(N)c45)cc3)c2)s1 [Compound 127] |  | < 100 |  | 
< 100 | CC(C)n1nc(-c2ccc(Oc3cc(F)cc(OCc4ccc(CO)nc4)c3)cc2)c2c(N)ncnc21 [Compound 128] |  | < 100 |  | 
< 100 | Cc1ncc(COc2cc(F)cc(Oc3ccc(-c4nn(C(C)(C)C)c5ncnc(N)c45)cc3)c2)cn1 [Compound 129] |  | < 100 |  | 
< 100 | Cc1ncc(COc2cc(F)cc(Oc3ccc(-c4nn(C(CO)CO)c5ncnc(N)c45)cc3)c2)cn1 [Compound 130] |  | 100 to 1000 |  | 
